Results on 46 molecules are retold here after the supplement of paper PMC10290057.

Structures can show the parent of a compound that is named as a salt.
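Also: Luminescence-based viability readout, five doses per compound, normalized against on-plate DMSO and empty-well controls, followed by dose-response curve fitting for every drug.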

The test system of the assay is HCT116. As to the kind of experiment: efficacy (fitted maximal change in viability relative to DMSO control); higher = less cytotoxic (negative = loss of viability). Particulars: 48 h.
On to `NC[C@H](O)c1ccc(O)c(O)c1` [Noradrenaline bitartrate monohydrate], for which the efficacy was 10.7%.

With `CCN1\C=C(\C(O)=O)C(=O)C2=C1C=C(N3CCNCC3)C(=C2)F` [Norfloxacin], the efficacy worked out at 9.53%. Next, `CO[C@@H]1[C@@H](OC(N)=O)[C@@H](O)[C@H](OC2=CC=C3\C(=C(NC(=O)C4=CC=C([O-])C(=C4)CC=C(C)C)/C(=O)OC3=C2C)O)OC1(C)C` [Novobiocin sodium]: 3.79%; `Nc1nc(OCc2ccccc2)c2nc[nH]c2n1` [O6-Benzylguanine]: -34.3%; `CN1CCN(CC1)C2=C(NC(=O)C/3=C/NC(=O)/C=C3C(F)(F)F)C=C(C=C2)C4=CC(=CC=C4)CN5CCOCC5` [OICR-9429]: -23.2%. As for `CC#CC(=O)N1CC[C@@H](n2c(=O)n(-c3ccc(Oc4ccccc4)cc3)c3c(N)ncnc32)C1` [ONO-4059 (GS-4059)], the figure is -53.5%.

Consider `C=CC(=O)N1CCC[C@H](n2c(=O)n(-c3ccc(Oc4ccccc4)cc3)c3c(N)ncnc32)C1` [ONO-4059 analog], for which the efficacy is -67.4%.

Regarding `CCOCOC[C@H](C[C@H](C)C(=O)NO)NC(=O)c1ccc(Oc2ccccc2)cc1` [ONO-4817], the efficacy was -33.1%. For `CN(C)CCNC(=O)COc1c2cccc1Cc1cccc(c1OCC(=O)NCCN(C)C)Cc1cccc(c1OCC(=O)NCCN(C)C)Cc1cccc(c1OCC(=O)NCCN(C)C)C2` [OTX-008], the efficacy is -46.7%.

Take `CCC(CCCC)COC(=O)C(\C#N)=C(\c1ccccc1)c2ccccc2` (stereo unspecified) [Octocrylene]: the efficacy was -31.5%. As for `C[C@@H](O)[C@@H]1NC(=O)[C@H](CCCCN)NC(=O)[C@@H](Cc2c[nH]c3ccccc23)NC(=O)[C@H](Cc2ccccc2)NC(=O)[C@@H](NC(=O)[C@H](N)Cc2ccccc2)CSSC[C@@H](C(=O)N[C@H](CO)[C@@H](C)O)NC1=O` [Octreotide], the figure is 9.15%.

Consider `CC(C)(F)C[C@H](N[C@@H](c1ccc(-c2ccc([S+](C)(=O)[O-])cc2)cc1)C(F)(F)F)C(=O)NC1(C#N)CC1` [Odanacatib], for which the efficacy is -28.3%.

Consider `CC1COC2=C3N1\C=C(C(O)=O)/C(=O)C3=CC(=C2N4CCN(C)CC4)F` (stereo unspecified) [Ofloxacin], for which the efficacy was -9.68%.

As to `N[C@@H](CCC(=O)O)C(=O)N[C@@H](Cc1c[nH]c2ccccc12)C(=O)O` [Oglufanide], the efficacy was -13.7%.

As for `FC1=C(C=C(C/C2=N/NC(=O)C3=C2C=CC=C3)C=C1)C(=O)N4CCN(CC4)C(=O)C5CC5` [Olaparib], the efficacy was -38.8%. Next, `CCCc1nc(C(C)(C)O)c(C(=O)O)n1Cc1ccc(-c2ccccc2-c2nn[nH]n2)cc1` [Olmesartan]: -6.46%; `CN(C)CC/C=C1/c2ccccc2COc2ccc(CC(=O)O)cc21` [Olopatadine hydrochloride]: 5.52%; `C\C1=C(\SSC1=S)C2=CN=CC=N2` [Oltipraz]: -26.5%. As for `COC(=O)N1CCN(Cc2cccc(NC(=O)Nc3ccc(C)nc3)c2F)CC1` [Omecamtiv mecarbil], the figure is -28.6%; as for `COc1ccc2[nH]c([S+]([O-])Cc3ncc(C)c(OC)c3C)nc2c1` (stereo unspecified) [Omeprazole], -17.5%.

For `CN(CC#C)C/C1=C/C2=CC=CC=C2OC3=CC=CC=C13` [Omigapil], the efficacy was -34.5%. Regarding `CCCCCCCCCCCC(CC1OC(=O)C1CCCCCC)OC(=O)C(CC(C)C)NC=O` (stereo unspecified) [Orlistat], the efficacy is -6.83%.

On to `OC(=O)C/1=C/C(=O)NC(=O)N1` [Orotic acid], for which the efficacy was -16.5%. For `CNC(=O)c1ccc2cc(C3(O)CCn4cncc43)ccc2c1` (stereo unspecified) [Orteronel], the efficacy was -5.91%. With `CCOC(=O)\C1=C\[C@@H](OC(CC)CC)[C@H](NC(C)=O)[C@@H](N)C1` [Oseltamivir phosphate], the efficacy was 13%.

Regarding `OCCOc1ccc(/C(=C(/CCCl)c2ccccc2)c2ccccc2)cc1` [Ospemifene], the efficacy was -49.5%.

`C[C@]12COC(=O)C[C@@H]1CC[C@@H]1[C@@H]2CC[C@@]2(C)[C@H]1CC[C@]2(C)O` [Oxandrolone]: the efficacy was -21.6%. For `O=C1CCC[C@@H]2[C@H]3CCC[N+]4([O-])CCC[C@@H](CN12)[C@@H]34` (stereo partly specified) [Oxymatrine], the efficacy is -29.8%.

As to `CC1=CC(=C(O)C(=C1C\C2=N\CCN2)C)C(C)(C)C` [Oxymetazoline hydrochloride], the efficacy is -19.1%. As for `CC(C)Oc1ccc(-c2nc(-c3cccc4c3CC[C@@H]4NCCO)no2)cc1C#N` [Ozanimod], the figure is -31.3%; as for `O=[N+]([O-])c1cn2c(n1)OC[C@@H](OCc1ccc(OC(F)(F)F)cc1)C2` [PA-824], -19.8%.

On to `COc1cc(OCc2cccc(-c3ccccc3)c2C)cc(OC)c1CN1CCCC[C@H]1C(=O)O` [PD-1/PD-L1 Inhibitor 1], for which the efficacy was -62%. As to `FC1=CC=C(CN2\C=C/C=C(/C(=O)N[C@@H](COC3=CC4=C(NC(=O)N4)C=C3)C5=CC=CC=C5)C2=O)C=C1F` [PDPK1 Inhibitor], the efficacy is -72.1%. Next, `O=C(CCN1CCN(C(=O)OCc2cc(Cl)cc(Cl)c2)CC1)c1ccc2[nH]c(=O)oc2c1` [PF-8380]: -11.3%; `O=C(/C=C/N1C[C@H]2C[C@@H]1CN2c1ccccn1)c1ccccc1O` [PFI-3]: -9.44%; `COc1ccccc1C(=O)Nc1cc2c(cc1N1CCCC1)n(C)c(=O)n2C` [PFI-4]: -64%. In the case of `CCCCCCCCCCCCc1ccc([S+](=O)([O-])Nc2nncs2)cc1` [PHT-427], the efficacy was -13.9%. Next, `CC1=C(C=CC=C1)N2\C(=N/C3=C(C(=CC=C3)C)C2=O)C[N]4N=CC5=C4N=CN=C5N` [PIK-293]: -6.78%; `O=C(CCCc1ccc2cccnc2n1)NCc1cc(-c2ccc(F)c(C(F)(F)F)c2)no1` [PRP003-062]: -32.2%; `Clc1cccc(-c2ccc(-c3nnc(CCCc4ccc5cccnc5n4)o3)cc2)c1` [PRP003-073]: -17.9%.

As for `O=C(Nc1cc(Cl)cc2c1[nH]c1cnccc12)c1cccnc1` [PS-1145], the efficacy is 18.5%. In the case of `C[S+](=O)([O-])c1ccc(Oc2cc(F)cc(C#N)c2)c2c1[C@H](O)C(F)(F)C2` [PT-2385], the efficacy is -10.6%. For the molecule `O=C(O)c1cccc(-c2noc(-c3ccccc3F)n2)c1` [PTC-124], the efficacy was -22.5%. As to `C=CCN(/C=C1\C(=O)O[C@@H](COC)[C@]2(C)C1=C(O)C(=O)C1=C2[C@@H](OC(C)=O)C[C@]2(C)C(=O)CC[C@H]12)CC=C` [PX-866], the efficacy was -20.5%. For `CN1CCCN=C1/C=C/c1cccs1` [PYRANTEL PAMOATE], the efficacy is -47%. In the case of `CC(=O)O[C@H]1C(=O)[C@]2(C)[C@@H](O)C[C@H]3OC[C@@]3(OC(C)=O)C2[C@H](OC(=O)C4=CC=CC=C4)[C@]5(O)C[C@H](OC(=O)[C@H](O)[C@@H](NC(=O)C6=CC=CC=C6)C7=CC=CC=C7)\C(=C1/C5(C)C)C` (stereo partly specified) [Paclitaxel], the efficacy was -68.3%.
